The target in one test is T1, Rat Hepatic V1 Receptors (Rattus norvegicus, UniProt P30560).
T1 construct: Rat liver plasma membranes expressing the vasopressin V1 receptor subtypes; from tissue; host or cells: rat liver plasma membranes
Nature of the test: Binding Assay to Rat Hepatic V1 Receptors. As for the experimental part:
Binding Assay to Rat Hepatic V1 Receptors
Rat liver plasma membranes expressing the vasopressin V1 receptor subtypes are isolated by sucrose density gradient according to the method described by Lesko et al., (1973). These membranes are quickly suspended in 50.0 mM Tris.HCl buffer, pH 7.4, containing 0.2% bovine serum albumin (BSA) and 0.1 mM phenylmethylsulfonylfluoride (PMSF) and kept frozen at -70° C. until used in subsequent binding experiments. For binding experiments, the following is added to the wells of a ninety-six well format microtiter plate: 100 μl of 100.0 mM Tris.HCl buffer containing 10.0 mM MgCl2, 0.2% heat inactivated BSA and a mixture of protease inhibitors: leupeptin, 1.0 mg %; aprotinin, 1.0 mg %; 1,10-phenanthroiine,2.0 mg %; trypsin inhibitor, 10.0 mg % and 0.1 mM PMSF, 20.0 μl of [phenylalanyl-3,4,5, -^3 H] vasopressin (S.A. 45.1 Ci/mmole) at 0.8 nM, and the reaction initiated by the addition of 80 μl of tissue membranes containing 20 μg of tissue protein. The plates are kept undisturbed on the bench top at room temperature for 120 min. to reach equilibrium. Non-specific samples are assayed in the presence of 0.1 μM of the unlabeled antagonist phenylalanylvasopressin, added in 20.0 μl volume.
(§1) For test compounds, these are solubilized in 50% dimethylsulfoxide (DMSO) and added in 20.0 μl volume to a final incubation volume of 200 μl . Upon completion of binding, the content of each well is filtered off, using a Brandel® cell Harvester (Gaithersburg, Md.). The radioactivity trapped on the filter disk by the ligand-receptor complex is assessed by liquid scintillation counting in a Packard LS Counter, with an efficiency of 65% for tritium. The data are analyzed for IC50 values by the LUNDON-2 program for competition (LUNDON SOFTWARE, Ohio).

Test [1] addresses T2, Rat Kidney Medullary V2 Receptors (Rattus norvegicus, UniProt Q00788).
T2 construct: Medullary tissues from rat kidneys are dissected out; from tissue; host or cells: rat kidney medulla membranes
Put plainly: Binding Assay to Rat Kidney Medullary V2 Receptors. Here is the method: Binding Assay to Rat Kidney Medullary V2 Receptors
Medullary tissues from rat kidneys are dissected out, cut into small pieces and soaked in a […] sodium chloride solution containing 1.0 mM EDTA with many changes of the liquid phase, until the solution is clear of blood. The tissue is homogenized in a 0.25M sucrose solution containing 1.0 mM EDTA and 0.1 mM PMSF using a Potter-Elvehjem homogenizer with a teflon pestle. The homogenate is filtered through several layers (4 layers) of cheese cloth. The filtrate is rehomogenized using a dounce homogenizer, with a tight fitting pestle. The final homogenate is centrifuged at 1500× g for 15 min. The nuclear pellet is discarded and the supernatant fluid recentrifuged at 40,000× g for 30 min. The resulting pellet formed contains a dark inner part with the exterior., slightly pink. The pink outer part is suspended in a small amount of 50.0 mM Tris. HCl buffer, pH 7.4. The protein content is determined by the Lowry's method (Lowry et al., J. Biol. Chem., 1953). The membrane suspension is stored at -70° C. in 50.0 mM Tris HCl, containing 0.2% inactivated BSA and 0.1 mM PMSF in aliquots of 1.0 ml containing 10.0 mg protein per ml of suspension until use in subsequent binding experiments.
as §1, with “The plates are left undisturbed on the bench top for 120 min to reach equilibrium. Non-specific binding is assessed in the presence of 1.0 μM of unlabeled ligand, added in 20 μl volume. For” for “For”, “μl.” for “μl .”

For another test, the system named is Vasopressin V1. Put plainly: Vasopressin V1 Antagonist Activity in Conscious Rats (vasopressin vasopressor response). Type of test: in vivo, rat. More on the design: Average Change: unit not given here. Conditions: 10 mg/kg i.v., SHR. Here is the method:
Vasopressin V1 Antagonist Activity in Conscious Rats
Conscious rats are restrained in a supine position with elastic tape. The area at the base of the tail is locally anesthetized by subcutaneous infiltration with 2% procaine (0.2 ml). Using aseptic technique the ventral caudal tail artery is isolated and a cannula made of PE 10 and 20 (heat-fused) tubing is passed into the lower abdominal aorta. The cannula is secured, heparinized (1000 i.u./cc), sealed and the wound closed with one or two stitches of Dexon 4-0. The caudal vein is also cannulated in the same manner for intravenous drug administration. The duration of the surgery is approximately 5 minutes. Additional local anesthesia (2% procaine or lidocaine) is provided as needed.
The animals are placed in plastic restraining cages in an upright position. The cannula is attached to a Statham P23Db pressure transducer and pulsatile blood pressure is recorded. […] The vasopressin injections are repeated 30,60,90,120,180,240 and 300 min. later. Percentage of antagonism by the compound is calculated using the pre-drug vasopressin vasopressor response as 100%.

[2] abbreviates: rat liver membranes, read-out: V1 IC50.
[3] abbreviates: rat kidney medulla membranes, read-out: V2 IC50.

Where two headings read alike, the source gives them in different places.

T2 sequence (Q00788 whole entry): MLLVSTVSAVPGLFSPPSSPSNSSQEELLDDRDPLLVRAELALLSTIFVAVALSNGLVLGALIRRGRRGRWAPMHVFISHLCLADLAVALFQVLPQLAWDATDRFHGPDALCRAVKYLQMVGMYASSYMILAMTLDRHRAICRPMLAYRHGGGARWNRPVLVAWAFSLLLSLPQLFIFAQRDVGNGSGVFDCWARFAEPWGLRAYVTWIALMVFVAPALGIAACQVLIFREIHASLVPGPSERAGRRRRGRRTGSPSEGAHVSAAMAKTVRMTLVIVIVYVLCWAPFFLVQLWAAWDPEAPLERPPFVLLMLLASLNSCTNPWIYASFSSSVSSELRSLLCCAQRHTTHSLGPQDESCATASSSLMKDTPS
T1 sequence (P30560 whole entry): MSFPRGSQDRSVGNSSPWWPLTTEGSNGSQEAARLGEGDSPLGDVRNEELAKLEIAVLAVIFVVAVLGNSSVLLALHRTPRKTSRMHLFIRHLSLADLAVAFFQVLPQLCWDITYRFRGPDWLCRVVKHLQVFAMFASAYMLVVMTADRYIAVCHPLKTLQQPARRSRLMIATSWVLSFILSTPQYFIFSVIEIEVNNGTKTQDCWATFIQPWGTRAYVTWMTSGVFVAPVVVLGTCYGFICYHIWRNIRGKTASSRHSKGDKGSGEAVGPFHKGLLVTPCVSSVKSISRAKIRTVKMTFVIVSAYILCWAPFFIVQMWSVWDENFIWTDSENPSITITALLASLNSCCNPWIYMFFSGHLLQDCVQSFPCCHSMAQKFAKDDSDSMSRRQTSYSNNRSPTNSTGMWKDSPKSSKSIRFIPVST

Broadly, the IC50 is the concentration that gives 50% inhibition. In the case of `Cc1ccccc1C(=O)Nc1ccc(C(=O)N2Cc3ccc(CN(C)C)n3Cc3ccccc32)cc1` [Example 660], the IC50 was 0.073 µM at Rat Hepatic V1 Receptors (setting [2]) and 0.064 µM in test [1] (setting [3]).
By % Inhibition is commonly meant the percentage by which the read-out fell short of the control. For the compound `COc1cc(Cl)ccc1C(=O)Nc1ccc(C(=O)N2Cc3cccn3Cc3ccccc32)cc1` [Example 89, N-[4-(5H-Pyrrolo[2,1-c][1,4]benzodiazepin-10(11H)ylcarbonyl)phenyl]-4-chloro-2-methoxybenzamide], the “% Inhibition” value with Vasopressin V1 (VAS 0.01 i.u./kg, 30 min) amounted to 88%; in the test on Vasopressin V1 (VAS 0.01 i.u./kg, 60 min), 81%; with Vasopressin V1 (VAS 0.01 i.u./kg, 90 min), 81%; in the test on Vasopressin V1 (VAS 0.01 i.u./kg, 120 min), 63%; in the test on Vasopressin V1 (VAS 0.01 i.u./kg, 180 min), 38%; in the test on Vasopressin V1 (VAS 0.01 i.u./kg, 240 min), 38%. The “% Inhibition” value is reported as 31% in the test on Vasopressin V1 (VAS 0.01 i.u./kg, 300 min); 92% in the test with Vasopressin V1 (VAS 0.02 i.u./kg, 30 min); 84% in the test with Vasopressin V1 (VAS 0.02 i.u./kg, 60 min); 80% with Vasopressin V1 (VAS 0.02 i.u./kg, 90 min); 56% in the test with Vasopressin V1 (VAS 0.02 i.u./kg, 120 min); 48% with Vasopressin V1 (VAS 0.02 i.u./kg, 180 min). The “% Inhibition” value in the test on Vasopressin V1 (VAS 0.02 i.u./kg, 240 min) came out at 44%; with Vasopressin V1 (VAS 0.02 i.u./kg, 300 min), 48%. Also, the “Average Change” value in the test on Vasopressin V1 (VAS 0.01 i.u./kg, 30 min) worked out at 5; in the test on Vasopressin V1 (VAS 0.01 i.u./kg, 60 min), 7.5; in the test on Vasopressin V1 (VAS 0.01 i.u./kg, 90 min), 7.5; with Vasopressin V1 (VAS 0.01 i.u./kg, 120 min), 15; with Vasopressin V1 (VAS 0.01 i.u./kg, 180 min) it was 25; in the test on Vasopressin V1 (VAS 0.01 i.u./kg, 240 min), 25. Further, the “Average Change” value is 27.5 in the test on Vasopressin V1 (VAS 0.01 i.u./kg, 300 min); 5 with Vasopressin V1 (VAS 0.02 i.u./kg, 30 min); 10 in the test on Vasopressin V1 (VAS 0.02 i.u./kg, 60 min); 12.5 in the test with Vasopressin V1 (VAS 0.02 i.u./kg, 90 min); 27.5 in the test on Vasopressin V1 (VAS 0.02 i.u./kg, 120 min); 32.5 with Vasopressin V1 (VAS 0.02 i.u./kg, 180 min). Besides, the “Average Change” value in the test with Vasopressin V1 (VAS 0.02 i.u./kg, 240 min) is given as 35; in the test with Vasopressin V1 (VAS 0.02 i.u./kg, 300 min) it was 32.5. Besides, the IC50 on Rat Hepatic V1 Receptors (setting [2]) amounted to 0.023 µM; in test [1] (setting [3]) it was 0.008 µM.
In the case of `O=C(c1ccc(NS(=O)(=O)Cc2ccccc2)cc1)N1Cc2cccn2Cc2ccccc21` [Example 494, 10-[4-[[(Phenylmethyl)sulfonyl]amino]benzoyl]-10,11-dihydro-5H-pyrrolo[2,1-c][1,4]benzodiazepine], the IC50 on Rat Hepatic V1 Receptors (setting [2]) was determined as 0.11 µM; in test [1] (setting [3]), 5.8 µM.
Take `CC(=O)c1ccc2n1Cc1ccccc1N(C(=O)c1ccc(NC(=O)c3ccc(Cl)cc3Cl)cc1)C2` [Example 670, N-[4-[(3-Acetyl-5H-pyrrolo[2,1-c][1,4]benzodiazepin-10(11H)-yl]carbonyl]phenyl]-2,4-dichlorobenzamide]: the IC50 on Rat Hepatic V1 Receptors (setting [2]) is 1.1 µM; in test [1] (setting [3]), 0.29 µM.
In the case of `Cc1ccccc1C(=O)Nc1ccc(C(=O)N2Cc3ccc(CN4CCN(Cc5ccccc5)CC4)n3Cc3ccccc32)cc1` [Example 663, N-[4-[[3-[[4-(phenylmethyl)-1-piperazinyl]methyl]-5H-pyrrolo[2,1-c][1,4]-benzodiazepin-10(11H)-yl]carbonyl]-phenyl]-2-methylbenzamide], the figures for the IC50 (on Rat Hepatic V1 Receptors (setting [2]); in test [1] (setting [3])) were 0.009 µM and 0.025 µM, respectively.
One may read the inhibition as the drop in the measured response relative to a control, in per cent. `O=C(c1ccc(NS(=O)(=O)c2cc(Cl)ccc2Cl)cc1)N1Cc2cccn2Cc2ccccc21` [Example 493, 10-[4-[[(2,5-Dichlorophenyl)sulfonyl]amino]benzoyl]-10,11-dihydro-5H-pyrrolo[2,1-c][1,4]benzodiazepine]: on Rat Hepatic V1 Receptors (setting [2]), the IC50 was found to be 0.14 µM. This compound also registered an inhibition at 10 µM in test [1] (10 μM, rat) of 68%.
Regarding `O=C(c1ccc(NP(=O)(Oc2ccccc2)Oc2ccccc2)cc1)N1Cc2cccn2Cc2ccccc21` [Example 492], the IC50 at Rat Hepatic V1 Receptors is 0.16 µM; in test [1], 3.2 µM.
For the compound `O=C(Nc1ccc(C(=O)N2Cc3cccn3Cc3ccccc32)c(Cl)c1)c1cccc(C(F)(F)F)c1F` [Example 699, N-[4-(5H-pyrrolo[2,1-c][1,4]benzodiazepin-10(11H)-ylcarbonyl)-3-chloro-phenyl]-2-fluoro-3-(trifluoromethyl)benzamide], the inhibition at 1 µM was determined as 19% at Rat Hepatic V1 Receptors (2 h, 1 μM, rat) and 100% in test [1] (1 μM, rat).
As to `Cc1ccc(C(=O)Nc2ccc(C(=O)N3Cc4cccn4Cc4ccccc43)cc2)s1` [Example 355, N-[4-(5H-Pyrrolo[2,1-c][1,4]benzodiazepin-10(11)ylcarbonyl)phenyl]-5-methyl-2-thiophenecarboxamide], the IC50 on Rat Hepatic V1 Receptors (setting [2]) is 0.165 µM; in test [1] (setting [3]) it was 0.35 µM.
The like results for `Cc1ccccc1C(=O)Nc1ccc(C(=O)N2Cc3ccc(CN4CCCCC4)n3Cc3ccccc32)cc1` [Example 661, N-[4-[[3-(1-piperidinylmethyl)-5H-pyrrolo[2,1-c][1,4]benzodiazepin-10(11H)-yl]carbonyl]phenyl]-2-methyl-benzamide] were, in that order, 0.057 µM and 0.057 µM.
The like results for `Cc1ccccc1C(=O)Nc1ccc(C(=O)N2Cc3cccn3C(=O)c3ccccc32)cc1` [Example 40, 2-Methyl-N-[4-[(5-oxo-5H-pyrrolo[2,1-c]-[1,4]benzodiazepin 10(11H)-yl)carbonyl]phenyl]benzamide] were, in that order, 2.4 µM and 0.12 µM.
On the same counts, the results for `Cc1ccccc1C(=O)Nc1ccc(C(=O)N2Cc3ccc(CN4CCOCC4)n3Cc3ccccc32)cc1` [Example 662, N-[4-[[3-(4-morpholinomethyl)-5H-pyrrolo[2,1-c][1,4]benzodiazepin-10(11H)-yl]carbonyl]phenyl]-2-methyl-benzamide] are 0.04 µM and 0.035 µM.

(Values after patent US5624923A, “Tricyclic diazepine vasopressin antagonists and oxytocin antagonists” (priority 1995, dated 1997).)
